Data as given in patent US5817651A, “3-arylcarbonyl-1-(C-attached-N-heteryl)-1H-indoles” (Sanofi, priority 1997, dated 1998).
Where two headings read alike, the source gives them in different places.

What was measured:
[1] = tested on: mouse vasa deferentia preparation; experiment: mouse vas deferens test (MVD); type: cell-based; conditions: inhibition of contractions, in vitro, active at 5.0 μM or less
Description: It has been shown previously that smoking marijuana reduces intraocular pressure in man [Helper and Frank, Marijuana Smoking and Intraocular Pressure., J. Am. Med. Assoc. 217, 1392 (1971)]. Topical application or systemic injection of delta-9 tetrahydrocannabinol, a principal active ingredient in marijuana, also reduces intraocular pressure [Purnell and Gregg, delta-9 Tetrahydrocannabinol, Euphoria and Intraocular Pressure in Man., Ann. Opth. 7, 921-923 (1975); Green and Pederson, Effect of delta-9 Tetrahydrocannabinol on Aqueous Dynamics and Ciliary Body Permeability in the Rabbit Eye., Exptl. Eye Research 15, 499-507 (1973); Colasanti, Craig and Allara, Intraocular Pressure, Ocular Toxicity and Neurotoxicity after Administration of Cannabinol or Cannibigerol, Exptl. Eye Research 39, 252-259 (1984)]. Similarly, synthetic cannabinoids also reduce intraocular pressure [Green, Symunds, Oliver and Elijah, Intraocular Pressure Following Systemic Administration of Cannabinoids., Curr. Eye Research 2, 247-253 (1982); Tiedeman, Shields, Weber, Crow, Coccetto, Harris and Howes, Opthalmology, 88, 270-277 (1981); Colasanti et al., supra]. Cannabinoid receptor binding sites can be defined as those to which radio-labelled 4-(1,1-dimethylheptyl)-2,3'-dihydroxy-6'alpha-(3-hydroxypropyl)-1', 2', 3', 4', 5', 6'-hexahydrobiphenyl (CP 55940) binds in a specific and saturable manner and the binding sites are heterogeneously distributed in the brain [Devane, Dysarz, Johnson, Melvin and Howlett, Determination and Characterization of a Cannabinoid Receptor in Rat Brain, Molecular Pharm. 34, 605-613 (1988)]. Natural and synthetic cannabinoids and certain of the compounds of the present invention, as more particularly described above, bind to CP 55940 binding sites. […] It is believed that agonist activity at the cannabinoid receptor mediates the anti-glaucoma actions of cannabinoids, and that agonist activity at this receptor correlates with ocular pressure lowering actions in man. Accordingly the cannabinoid receptor agonist activity of the compounds of the present invention indicate their usefulness in reducing ocular pressure.

[2] = tested on: acetylcholine-induced abdominal constriction; experiment: acetylcholine-induced abdominal constriction test (ACH); type: in vivo; design: key to ACH remark (Depr. = depressant): The abbreviations IA and Depr. represent, respectively, inactive and depressant; The abbreviations IA and Depr. represent, respectively, inactive and depressant; conditions: mice; for ED50 / inhibition in vivo at 100 mg/kg: Mus musculus; for inhibition in vivo at 100 mg/kg: dose level 100, read-out: ACH percent inhibition at dose 100; for ACH remark (Depr. = depressant): remark beside the ED50
In short: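 Compounds were given as gum tragacanth suspensions or as aqueous solutions dissolved with dilute methanesulfonic or lactic acid.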

[3] = tested on: adjuvant induced arthritis; experiment: developing adjuvant arthritis (AA) assay; type: in vivo; design: key: Non-statistically significant results are recorded as "------ "; conditions: arthritic rats; printed * = p<0.01, ** = p<0.05
Protocol: Antirheumatic and anti-inflammatory activities of the compounds of the invention were determined using the developing adjuvant arthritis assay in rats and the plasma fibronectin assay in arthritic rats. The developing adjuvant arthritis assay was used in conjunction with the plasma fibronectin assay as a primary screening method in the evaluation of compounds for potential use as disease modifying anti-rheumatic drugs. The procedure used to induce arthritis in rats is a modification of the methods published by Pearson, J. Chron. Dis. 16, 863-874 (1973) and by Glenn et al., Amer. J. Vet. Res. 1180-1193 (1965). Adjuvant induced arthritis bears many of the traits of rheumatoid arthritis. It is a chronic, progressive, deforming arthritis of the peripheral joints, with a primary mononuclear cell response consisting of bone and joint space invasion by pannus. In order to detect disease modifying anti-rheumatic drug activity, drug treatment is started before the disease has become irrevocably established. Since such drugs are not designed to be administered prophylactically, drug treatment of adjuvant arthritis is initiated at a time when the disease is developing but is not yet irreversible. Animals develop significant systemic arthritic disease which can be measured by swelling of the non-injected rear paw (NIP) 15 to 20 days following an initial injection on day 1 of complete Freund's adjuvant into the right hindfoot paw.
(§1) Data in the developing adjuvant arthritis (AA) and plasma fibronectin (FN) assays are expressed as percent inhibition, i.e. inhibition of non-injected paw inflammation (NIP) and injected paw (RPV) and lowering of plasma fibronectin, the asterisks * and ** indicating statistical significance at the p<0.01 and p<0.05 levels, respectively. Compounds are considered active at p<0.05 level. Non-statistically significant results are recorded as "------ ". In the acetylcholine-induced abdominal constriction test, the test compounds were administered either as suspensions in gum tragacanth (GT) or as aqueous solutions prepared by addition of just sufficient dilute aqueous methanesulfonic acid (MS) or dilute aqueous lactic acid (LA) to dissolve the compound. The compounds are identified by the example number above where their preparations are described. All data in the anti-bradykinin, rat writhing and Randall-Selitto tests were obtained on oral administration.

[4] = tested on: acetic acid-induced writhing; experiment: acetic acid-induced writhing assay in the rat (RW); type: in vivo; conditions: for ED50: Rattus norvegicus, po; for ED50 / RW ED50: oral administration; for RW percent inhibition at dose 30: dose level 30
In short: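 Rats received the test compounds by the oral route. The read-out was abdominal writhing.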

[5] = tested on: bradykinin; experiment: anti-bradykinin test (BDK); type: in vivo
Description: (§2) The test procedures used to determine the analgesic activities of the compounds have been described in detail in the prior art and are as follows: The acetylcholine-induced abdominal constriction test, which is a primary analgesic screening test designed to measure the ability of a test agent to suppress acetylcholine-induced abdominal constriction in mice, described by Collier et al., Brit. J. Pharmacol. Chemotherap. 32, 295 (1968); a modification of the anti-bradykinin test, which is also a primary analgesic screening procedure, described by Berkowitz et al., J. Pharmacol. Exptl. Therap. 177, 500-508 (1971), Blane et al., J. Pharm. Pharmacol. 19, 367-373 (1967), Botha et al., Eur. J. Pharmacol. 6, 312-321 (1969) and Deffenu et al., J. Pharm. Pharmacol. 18, 135 (1966); and the Randall-Selitto analgesic test described by Randall and Selitto, Arch. Int. Pharmacodyn., 111, 409-419 (1957).
as §1

[6] = tested on: paw pressure; experiment: Randall-Selitto (RS) paw pressure test; type: in vivo; conditions: oral administration; read-out: RS minimum effective dose, MED
Description: as §2, §1

[7] = Table 9, Examples, no route marked in the cell, read-out: ACH ED50
[8] = iv, Table 9, iv, read-out: ACH ED50 (iv)
[9] = Table 9, Examples, no route marked in the cell

| SMILES | IC50 ([1]; Mus musculus) [nM] | ED50 [2, 7] [mg/kg] | NIP: percent inhibition of non-injected paw inflammation [3] | RPV: percent inhibition of injected paw [3] [%] | ED50 [4] [mg/kg] | further results |
| --- | --- | --- | --- | --- | --- | --- |
| COc1ccc(C(=O)c2c(C)n(C[C@@H]3CC[C@@H](C)N3C)c3ccccc23)cc1 (relative stereo) [Example 1Y] | 52 | 21 | 67% | 48 | 3 | ED50 [2, 8]: 2 mg/kg; ED50 ([2]; sc, Table 9, sc, read-out: ACH ED50 (sc)): 10 mg/kg |
| COc1ccc(C(=O)c2c(C)n(CC3CCN(C)CC3)c3ccccc23)cc1 [Example 2AH] |  | 4 |  |  |  | ACH ED50 [2, 9]: 5 mg/kg; RW percent inhibition at dose 30 ([4]; oral): 74%; BDK percent inhibition at dose 3 ([5]; oral, dose level 3): 30% |
| COc1ccc(C(=O)c2c(C)n(CCC3CCCN3C)c3ccccc23)cc1 (stereo not drawn) [Example 2B] |  | 32 |  |  | 25 | ED50 [2, 8]: 8 mg/kg; ACH ED50 ([2]; Table 9, Examples, no route marked in the cell, listed as 2B(HCl)): 23 mg/kg; minimal effective dose [6]: 10 mg/kg |
| COc1ccc(C(=O)c2c(C)n(C3CCCN(C)C3)c3ccccc23)cc1.Cl (racemic) [Example 4A, 1-(1-methyl-3-piperidinyl)-2-methyl-3-(4-methoxybenzoyl)-1H-indole hydrochloride] | 650 | 33 | 50% | 26 |  | RW percent inhibition at dose 17 ([4]; oral, dose level 17): 57% |
| CN1CCCCC1CCn1cc(C(=O)c2cccc3ccccc23)c2ccccc21 (stereo not drawn) [Example 2U] | 107 |  |  |  |  | inhibition in vivo at 100 mg/kg ([2]; Table 9): 30%; RW percent inhibition at dose 30 ([4]; oral): 50% |
| COc1ccc(C(=O)c2cn(CC3CCCN(C)C3)c3ccccc23)cc1 (stereo not drawn) [Example 1N] | 94 | 91 |  |  |  | RW ED50 [4]: 28.3 mg/kg |
| CCc1ccc(C(=O)c2c(C)n(CC3CCCN3C)c3ccccc23)cc1 (stereo not drawn) [Example 2AK] | 25 | 40 |  |  | 7 |  |
| COc1ccc(C(=O)c2cn(CC3CCCN3C)c3ccccc23)cc1 (stereo not drawn) [Example 2W] | 8 | 11 |  |  | 3 | ACH remark (Depr. = depressant) ([2]; Table 9): Depr. |
| COc1ccc(C(=O)c2c(C)n(CC3CCCCN3C)c3ccccc23)cc1 (stereo not drawn) [Example 2H] | 134 | 33 | 69% | 51 | 22 |  |
| CN1CCCC1Cn1cc(C(=O)c2ccccc2F)c2ccccc21 (stereo not drawn) [Example 2M] | 39 | 53 |  |  |  |  |
| Cc1c(C(=O)c2cccc3ccccc23)c2ccccc2n1CC1CN(C)CCO1 (stereo not drawn) [Example 1G] | 50 |  |  |  |  | ED50 [2, 8]: 6 mg/kg; inhibition in vivo at 100 mg/kg ([2]; Table 9): 10% |
| CN1CCCCC(n2cc(C(=O)c3cccc4ccccc34)c3ccccc32)C1 (stereo not drawn) [Example 2Z] | 82 |  | 65% |  |  | ACH percent inhibition at dose 30 (iv) ([2]; Table 9, dose level 30, iv): 80% |
| COc1ccc(C(=O)c2cn(CCC3CCCCN3C)c3ccccc23)cc1 (stereo not drawn) [Example 2F] |  | 45 |  |  |  | ED50 [2, 8]: 4 mg/kg; minimal effective dose [6]: 3 mg/kg |
| CSc1ccc(C(=O)c2c(C)n(CC3CCCN3C)c3ccccc23)cc1 (stereo not drawn) [Example 1V] | 130 | 25 |  |  | 7 |  |
| COc1ccc(C(=O)c2c(C)n(C3CCN(C)C3)c3ccccc23)cc1 (stereo not drawn) [Example 1X] | 150 | 20 | -- | 23 | 12 |  |
| COc1ccc(C(=O)c2c(C)n(C[C@@H]3CC[C@H](C)N3C)c3ccccc23)cc1 (relative stereo) [Example 1Z] | 48 | 14 |  |  |  | ED50 [2, 8]: 3 mg/kg |
| CN1CCCC(Cn2cc(C(=O)c3cccc4ccccc34)c3ccccc32)C1 (stereo not drawn) [Example 1P] | 28 | 144 | 38% | 43 |  |  |
| COc1ccc(C(=O)c2c(C)n(C(C)C3CCCN3C)c3ccccc23)cc1 (stereo not drawn) [Example 1AF] | 542 | 19 |  |  |  |  |
| COc1ccc(C(=O)c2cn(C(C)C3CCCN3C)c3ccccc23)cc1 (stereo not drawn) [Example 1AA] |  | 23 |  |  | 20 | IC50 [1]: 127 nM; ED50 [2, 8]: 5 mg/kg |
| COc1ccc(C(=O)c2cn(CC3CCCCN3C)c3ccccc23)cc1 (stereo not drawn) [Example 2J] | 3 | 6 | 66% | 27 | 0.5 | ACH remark (Depr. = depressant) ([2]; Table 9): Depr. |
| COc1ccc(C(=O)c2c(C)n(CC3CCCN(C)C3)c3ccccc23)cc1 (stereo not drawn) [Example 2D] |  | 8 | 99% | 78 | 2 | ED50 ([5]; oral administration): 2.4 mg/kg |
| Cc1c(C(=O)c2cccc3ccccc23)c2ccccc2n1CC1CCCCN1C (stereo not drawn) [Example 2R] | 1 | 22 | 57% | 29 |  | RW percent inhibition at dose 30 ([4]; oral): 100% |
| Cc1c(C(=O)c2cccc3ccccc23)c2ccccc2n1CC1CCCN(C)C1 (stereo not drawn) [Example 1M] | 91 |  |  |  |  | ED50 [2, 8]: 7 mg/kg; inhibition in vivo at 100 mg/kg ([2]; Table 9): 25%; minimal effective dose [6]: 0.1 mg/kg |
| COc1ccc(C(=O)c2cn(C(C)C3CCCN3C)c3ccccc23)cc1 (stereo not drawn) [Example 1AB] |  |  |  |  |  | IC50 [1]: 560 nM; ACH ED50 [2, 9]: 19 mg/kg; RW ED50 [4]: 10 mg/kg |
| O=C(c1cccc2ccccc12)c1cn(CC2CCCCN2)c2ccccc12 (stereo not drawn) [Example 4I] | 0.3 |  |  |  |  | ACH percent inhibition at dose 30 ([2]; Table 9, dose level 30): 30% |
